Consider 9 compounds from patent US20210115047A1, “CDPK1 INHIBITORS, COMPOSITIONS AND METHODS RELATED THERETO” (Vyera Pharmaceutical, LLC, priority 2017, published 2021).

The experiment concerns the target T1, T. gondii CDPK1 (tgCDPK1) (Toxoplasma gondii, UniProt Q9BJF5).
T1 sequence (Q9BJF5 1-507): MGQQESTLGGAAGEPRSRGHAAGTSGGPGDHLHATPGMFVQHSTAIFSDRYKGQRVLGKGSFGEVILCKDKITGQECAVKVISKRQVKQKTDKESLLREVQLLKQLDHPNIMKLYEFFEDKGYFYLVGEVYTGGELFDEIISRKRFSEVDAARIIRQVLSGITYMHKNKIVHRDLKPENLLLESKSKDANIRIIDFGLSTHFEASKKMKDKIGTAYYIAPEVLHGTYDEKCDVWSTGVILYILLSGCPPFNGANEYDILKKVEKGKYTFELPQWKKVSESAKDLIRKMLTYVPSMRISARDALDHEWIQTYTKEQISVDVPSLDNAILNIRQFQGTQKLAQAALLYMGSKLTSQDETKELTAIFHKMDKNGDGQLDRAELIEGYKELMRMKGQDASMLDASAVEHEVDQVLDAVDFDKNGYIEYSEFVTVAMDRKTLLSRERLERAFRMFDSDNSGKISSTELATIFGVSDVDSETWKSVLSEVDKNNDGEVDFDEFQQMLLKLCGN
Description: Inhibition of T. gondii CDPK1 (tgCDPK1), IC50 determination. The format is biochemical. Particulars: at least three independent replicates per compound. How it is done: Certain of the compounds prepared as described above were assayed to determine their IC50 for inhibition of T. gondii CDPK1 (tgCDPK1). At least three independent replicates of the assay were conducted for each compound tested.
On to `Nc1ncnc2c1c(Cc1cc(F)cc(Cl)c1)nn2C1CC1` [Compound 4, 3-(3-chloro-5-fluorobenzyl)-1-cyclopropyl-1H-pyrazolo[3,4-d]pyrimidin-4-amine], for which it took 91.7 nM to reach half-maximal inhibition (IC50). This lies in the double-digit nanomolar range.
As for `Nc1ncnc2c1c(C(O)c1cccnc1)nn2C1CC1` (stereo not drawn) [Compound 18, (4-amino-1-cyclopropyl-1H-pyrazolo[3,4-d]pyrimidin-3-yl)(pyridin-3-yl)methanol], the figure is 4870 nM.
Next, `Nc1ncnc2c1c(Cc1cccc(-c3ccccc3)c1)nn2C1CC1` [Compound 9, 3-([1,1′-biphenyl]-3-ylmethyl)-1-cyclopropyl-1H-pyrazolo[3,4-d]pyrimidin-4-amine]: 26.3 nM.
The compound `Nc1ncnc2c1c(Cc1ccccc1)nn2C1CC1` [Compound 17, 3-benzyl-1-cyclopropyl-1H-pyrazolo[3,4-d]pyrimidin-4-amine] registered a half-maximal inhibitory concentration (IC50) of 25.4 nM.
`Nc1ncnc2c1c(Cc1cccc(Cl)c1)nn2C1CCC1` [Compound 6, 3-(3-chlorobenzyl)-1-cyclobutyl-1H-pyrazolo[3,4-d]pyrimidin-4-amine] yielded a half-maximal inhibitory concentration (IC50) of 8.7 nM.
For the compound `Nc1ncnc2c1c(Cc1cccc(F)c1)nn2C1CC1` [Compound 5, 1-cyclopropyl-3-(3-fluorobenzyl)-1H-pyrazolo[3,4-d]pyrimidin-4-amine], the IC50 stood at 25.3 nM.
Next, `Nc1ncnc2c1c(Cc1cccc(-c3ccncc3)c1)nn2C1CC1` [Compound 11, 1-cyclopropyl-3-(3-(pyridin-4-yl)benzyl)-1H-pyrazolo[3,4-d]pyrimidin-4-amine]: 1170 nM.
As for `Nc1ncnc2c1c(Cc1cccc(-c3cncnc3)c1)nn2C1CC1` [Compound 10, 1-cyclopropyl-3-(3-(pyrimidin-5-yl)benzyl)-1H-pyrazolo[3,4-d]pyrimidin-4-amine], the figure is 373 nM; as for `Nc1ncnc2c1c(C(O)c1ccccc1)nn2C1CC1` (stereo not drawn) [Compound 16, (4-amino-1-cyclopropyl-1H-pyrazolo[3,4-d]pyrimidin-3-yl)(phenyl)methanol], 1750 nM.

Broadly, the IC50 is the concentration that inhibits the measured activity by half.
